“Also recorded” adds a separate entry of the source. Bridge positions count the residues as written; N and C are the ends. Square brackets hold non-standard residues; d marks the D form. Peptide text beside a SMILES is read from it. R8 = C=CCCCCCC[C@@](C)(N)C(=O)O; S5 = C=CCCC[C@](C)(N)C(=O)O; Nle = CCCC[C@H](N)C(=O)O
Biological target: T1, Human E1 activating enzyme UBA1 (Homo sapiens, UniProt P22314)
T1 sequence (P22314 1-1058): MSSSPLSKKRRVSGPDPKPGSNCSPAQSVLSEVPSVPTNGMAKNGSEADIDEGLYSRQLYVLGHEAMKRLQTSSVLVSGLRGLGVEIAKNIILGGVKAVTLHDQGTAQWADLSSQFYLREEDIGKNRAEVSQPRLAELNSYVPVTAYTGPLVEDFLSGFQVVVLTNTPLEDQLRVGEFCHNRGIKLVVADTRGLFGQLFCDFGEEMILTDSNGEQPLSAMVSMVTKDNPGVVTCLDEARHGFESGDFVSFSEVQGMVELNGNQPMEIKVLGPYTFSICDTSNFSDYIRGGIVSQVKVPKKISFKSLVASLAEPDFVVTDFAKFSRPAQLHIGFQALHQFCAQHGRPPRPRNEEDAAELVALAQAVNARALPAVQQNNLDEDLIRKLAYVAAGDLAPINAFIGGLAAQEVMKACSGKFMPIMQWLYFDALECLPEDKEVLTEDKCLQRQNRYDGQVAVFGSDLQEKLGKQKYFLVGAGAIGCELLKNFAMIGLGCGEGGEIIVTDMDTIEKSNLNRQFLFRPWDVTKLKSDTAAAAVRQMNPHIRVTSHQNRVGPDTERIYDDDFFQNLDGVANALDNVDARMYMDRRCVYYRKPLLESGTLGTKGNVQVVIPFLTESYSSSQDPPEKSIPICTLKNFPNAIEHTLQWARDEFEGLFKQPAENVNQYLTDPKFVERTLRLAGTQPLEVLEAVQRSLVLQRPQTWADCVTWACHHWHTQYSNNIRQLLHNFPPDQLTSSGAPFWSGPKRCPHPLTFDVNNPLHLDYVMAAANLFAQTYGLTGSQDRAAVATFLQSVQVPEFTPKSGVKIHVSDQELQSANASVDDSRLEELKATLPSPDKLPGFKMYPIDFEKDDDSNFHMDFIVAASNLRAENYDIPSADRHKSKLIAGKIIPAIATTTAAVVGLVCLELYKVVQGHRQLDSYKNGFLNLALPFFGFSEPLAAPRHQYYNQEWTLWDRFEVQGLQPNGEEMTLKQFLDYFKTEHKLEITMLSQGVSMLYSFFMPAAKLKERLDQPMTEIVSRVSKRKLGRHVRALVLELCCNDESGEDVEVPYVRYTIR
Test: In vitro enzyme inhibition assay: E1-mediated ubiquitin thioester transfer to E2 (band shift, silver stain)
Format: biochemical
Conditions: for effect of nonionic detergent on inhibitory activity against UBA1: 0.01% Triton X-100 in assay buffer
Procedure: In vitro Enzyme Inhibition Assays: To assess an E2 hA peptide's inhibition of an E1 enzyme, an in vitro enzyme inhibition assay can be used, for example. The in vitro enzyme inhibition assay measures an E2 hA peptide's ability to inhibit conjugation of ubiquitin to E2 by E1. Briefly, recombinant E1 (e.g., UBA1), recombinant E2 (e.g., UBE2A), ubiquitin, and Mg-ATP are combined in the presence of an E2 hA peptide or vehicle control (e.g., 1% DMSO) for a period of time (e.g., 30 minutes) at room temperature in a buffer containing, e.g., 50 mM NaCl, 50 mM HEPES pH 7.5. Control reaction includes no E1. Reactions are quenched by addition of SDS-containing loading dye and samples are resolved on a gel (e.g., a 4-12% Bis-Tris protein gel) under nonreducing conditions. Proteins on the gel are visualized via, e.g., silver stain. Conjugation of ubiquitin to E2 by E1 is monitored by conversion of free E2 (˜17 kDa) to E2˜ubiquitin conjugate (˜26 kDa).
Control reaction included no E1 enzyme. Reactions were quenched by addition of SDS-containing loading dye and samples were resolved on a 4-12% Bis-Tris protein gel under nonreducing conditions. Proteins were visualized via silver stain. Conjugation of ubiquitin to E2 by E1 was monitored by conversion of free E2 (17 kDa) to E2˜ubiquitin conjugate (26 kDa).
The ability of the peptides to inhibit E1-mediated thioester transfer to E2 was evaluated. Human E1 activating enzyme UBA1 (10 nM), UbcH5b E2 enzyme (150 nM), ubiquitin (1 μM), and Mg-ATP (20 μM) were combined in the presence of stapled peptide at a range of concentrations or vehicle control (1% DMSO) for 45 minutes at room temperature in buffer containing 50 mM NaCl, 50 mM HEPES, 1 mM TCEP pH 7.5. Reactions were quenched by addition of SDS-containing loading dye and samples were resolved on a 4-12% Bis-Tris protein gel under nonreducing conditions. Proteins were visualized via silver stain. Conjugation of ubiquitin to E2 by E1 was monitored by conversion of free E2 (17 kDa) to E2˜ubiquitin conjugate (26 kDa). Inhibition percentage was calculated from densitometry of silver stain images.
Streptavidin-biotin pull-down assays: For recombinant protein pull-downs, 10 pmol recombinant human UBA1 was incubated with 5 nmol C-terminally biotinylated SAH-UBE2A or DMSO vehicle control in a total volume of 1 mL binding buffer (50 mM NaCl, 20 mM HEPES, pH 7.4, 5 mM DTT) for 1.5 hours at 4° C. 30 μL of pre-equilibrated streptavidin agarose beads were then added and incubated for an additional 1.5 hours at 4° C. The beads were pelleted by centrifugation and washed three times with NP-40 buffer (20 mM HEPES, pH 7.4, 50 mM NaCl, 5 mM DTT, 0.5% [v/v] NP-40) before eluting the protein sample from the beads by heating at 70° C. for 10 min in 3×SDS loading buffer. Samples were subjected to electrophoresis and silver staining (Pierce 24612). For pull-down from cellular lysates, 0.75 mg HeLa cell lysate was incubated with 5 nmol C-terminally biotinylated SAH-UBE2A or DMSO vehicle control in a total volume of 1 mL binding buffer (50 mM NaCl, 20 mM HEPES, pH 7.4, 5 mM DTT) containing protease-phosphatase inhibitor cocktail for 2 hours at 4° C. 30 μL of pre-equilibrated streptavidin agarose beads (ThermoFisher 20357) were then added and incubated for an additional 1.5 hours at 4° C. The beads were pelleted by centrifugation and washed three times with NP-40 buffer (20 mM HEPES, pH 7.4, 50 mM NaCl, 5 mM DTT, 0.5% [v/v] NP-40) before eluting the protein sample from the beads by heating at 70° C. for 10 min in 3×SDS loading buffer. Proteins were separated by SDS-PAGE gel electrophoresis and detected by western blot against UBE1 (Abcam ab34711). In vitro Enzyme Inhibition Assays: Recombinant human E1 activating enzyme UBA1 (10 nM), E2 enzyme (150 nM), ubiquitin (1 μM), and Mg-ATP (20 μM) are combined in the presence of peptide or vehicle control (1% DMSO) for 45 minutes at room temperature in buffer containing 50 mM NaCl, 50 mM HEPES pH 7.5. Control reaction includes no E1 enzyme. […]

CCCC[C@H](NC(C)=O)C(=O)N[C@@H](CO)C(=O)N[C@H](C(=O)N1CCC[C@H]1C(=O)N[C@]1(C)CCCCCCC=CCCC[C@@](C)(C(=O)N[C@@H](Cc2ccccc2)C(=O)N[C@@H](CCCCN)C(=O)N[C@@H](CCCNC(=N)N)C(=O)N[C@@H](CC(C)C)C(=O)N[C@@H](CCC(N)=O)C(N)=O)NC(=O)[C@H](CCCNC(=N)N)NC(=O)[C@H](CCCC)NC(=O)[C@H](CC(C)C)NC(=O)[C@H](CCCNC(=N)N)NC(=O)[C@H](CCCNC(=N)N)NC(=O)[C@H](CCCNC(=N)N)NC1=O)[C@@H](C)O [SAH-UBE2A-11, BSTPX1RRRLBRX2FKRLQ] (Ac-[Nle]STP[R8]RRRL[Nle]R[S5]FKRLQ-NH2; staple 5-12)
effect of nonionic detergent on inhibitory activity against UBA1: not affected at all by the presence of non-ionic detergent | effect of nonionic detergent on inhibitory activity against UBA1 (listed as SAH-UBE2A): no effect on the inhibitory activity of SAH-UBE2A | inhibition of E1-mediated thioester transfer to a variety of human E2 enzymes (panel of human E2 enzymes (UBE2A, UBE2B, UBE2C, UBE2D1-4 etc.)): inhibited E1-mediated thioester transfer to all human E2 enzymes tested; also recorded: inhibits E1 thioester transfer activity | inhibition of E1-mediated thioester transfer to E2, dose response (range of peptide concentrations, UbcH5b E2 enzyme, 45 minutes): inhibited E1-mediated thioester transfer to E2 in a dose-dependent manner; also recorded: most potent activity; also recorded: dose-dependently inhibit E1-mediated thioester transfer to E2
